Data as given in paper PMC5403251 (Neuropharmacology, 2016).

Columns and labels:
5-HT2A [1] = details: in mice; ref Canal et al., 2013; cited from earlier work
C57BL/6J mice = assay: Discrete-trials temporal discrimination task; assay type: in vivo, mouse
5-HT2A [2] = details: in humans; ref Almaula et al., 1996; Pigott et al., 2012; Canal et al., 2013; cited from earlier work
5-HT2C receptors = details: ref Kennett et al., 1997; cited from earlier work
5-HT2C = details: in mice; ref Canal et al., 2013; cited from earlier work
5-HT2A [3] = details: ref Kehne et al., 1996; cited from earlier work
[4] = DOI 0.3 mg/kg IP, 10 min before session
[5] = DOI 1 mg/kg IP, 10 min before session
[6] = DOI 3 mg/kg IP, 10 min before session, dose-response experiment
[7] = M100907 blockade experiment: vehicle pretreatment, DOI 3 mg/kg IP
[8] = SB-242,084 blockade experiment: vehicle pretreatment, DOI 3 mg/kg IP
[9] = SB-242,084 0.1 mg/kg SC, 10 min before session
[10] = SB-242,084 0.3 mg/kg SC, 10 min before session
[11] = SB-242,084 1 mg/kg SC, 10 min before session
[12] = M100907 0.03 mg/kg SC, 10 min before session
[13] = M100907 0.1 mg/kg SC, 10 min before session
[14] = M100907 0.3 mg/kg SC, 10 min before session

COc1cc(CC(C)N)c(OC)cc1I.Cl (stereo not drawn) [DOI, 1-(2,5-dimethoxy-4-iodophenyl)-2-aminopropane hydrochloride]
Selectivity for 5-HT2A vs. 5-HT2C receptors (5-HT2A [1]): 12 fold
Difference limen (C57BL/6J mice; [4]): 1.20 ± 0.12 s
Slope (ε) (C57BL/6J mice; [4]): 1.009±0.108
T50 (C57BL/6J mice; [4]): 6.36 ± 0.17 s
Trials completed (C57BL/6J mice; [4]): 188.3±2.7
Weber fraction (C57BL/6J mice; DOI 0.3 mg/kg IP, 10 min before session, mean±SEM): 0.192±0.022
Difference limen (C57BL/6J mice; [5]): 1.29 ± 0.14 s
Slope (ε) (C57BL/6J mice; [5]): 0.968±0.133
T50 (C57BL/6J mice; [5]): 6.43 ± 0.13 s
Trials completed (C57BL/6J mice; [5]): 174.6±5.4
Weber fraction (C57BL/6J mice; [5]): 0.200±0.021
Difference limen (C57BL/6J mice; [6]): 1.89 ± 0.14 s
Slope (ε) (C57BL/6J mice; [6]): 0.608±0.044
T50 (C57BL/6J mice; [6]): 7.08 ± 0.41 s
Weber fraction (C57BL/6J mice; [6]): 0.275±0.030
%B responding (proportional choice of lever B) (C57BL/6J mice; DOI 3 mg/kg IP, 6.1, 7.8, 8.7 and 10.5 s after trial onset, dose-response experiment): significant reductions in %B responding
%B responding (proportional choice of lever B) (C57BL/6J mice; DOI 3 mg/kg IP, 6.9, 7.8, 9.6 and 10.5 s trials, M100907 blockade experiment): reduced %B responding
Difference limen (C57BL/6J mice; [7]): 1.71 ± 0.14 s
Slope (ε) (C57BL/6J mice; [7]): 0.661±0.044
T50 (C57BL/6J mice; [7]): 7.35 ± 0.20 s
Trials completed (C57BL/6J mice; [7]): 148.3±8.8
Weber fraction (C57BL/6J mice; [7]): 0.233±0.018
Difference limen (C57BL/6J mice; [8]): 1.74 ± 0.16 s
Slope (ε) (C57BL/6J mice; [8]): 0.713±0.101
T50 (C57BL/6J mice; [8]): 6.89 ± 0.31 s
Trials completed (C57BL/6J mice; [8]): 142.5±8.8
Weber fraction (C57BL/6J mice; [8]): 0.255±0.026
Correct responding during the 10.5 s-trials (C57BL/6J mice; after drug treatment that reduced %B responding at long stimulus intervals): more than 80%
Selectivity for 5-HT2A (5-HT2A [2]): ~ 5 fold

6-chloro-2,3-dihydro-5-methyl-N-[6-[(2-methyl-3-pyridinyl)oxy]-3-pyridinyl]-1H-indole-1-carboxyamide dihydrochloride [SB-242,084]
Selectivity for 5-HT2C receptors compared with 5-HT2A and 5-HT2B receptors (5-HT2C receptors): over 100 fold
Effect of pretreatment on the response to DOI (%B responding) (C57BL/6J mice; SB-242,084 0.1 mg/kg SC pretreatment, DOI 3 mg/kg IP): did not block the ability of DOI to alter %B responding
Difference limen (C57BL/6J mice; [9]): 0.98 ± 0.10 s
Slope (ε) (C57BL/6J mice; [9]): 1.202±0.110
T50 (C57BL/6J mice; [9]): 6.28 ± 0.14 s
Trials completed (C57BL/6J mice; [9]): 191.4±1.6
Weber fraction (C57BL/6J mice; SB-242,084 0.1 mg/kg SC, 10 min before session, mean±SEM): 0.156±0.016
Difference limen (C57BL/6J mice; [10]): 1.05 ± 0.08 s
Slope (ε) (C57BL/6J mice; [10]): 1.094±0.084
T50 (C57BL/6J mice; [10]): 6.02 ± 0.14 s
Trials completed (C57BL/6J mice; [10]): 189.9±2.5
Weber fraction (C57BL/6J mice; [10]): 0.173±0.015
Difference limen (C57BL/6J mice; [11]): 1.07 ± 0.09 s
Slope (ε) (C57BL/6J mice; [11]): 1.105±0.108
T50 (C57BL/6J mice; [11]): 5.66 ± 0.17 s
Trials completed (C57BL/6J mice; [11]): 188.0±2.8
Weber fraction (C57BL/6J mice; [11]): 0.191±0.018
Selectivity for 5-HT2C over 5-HT2A (5-HT2C): 960 fold

COc1cccc([C@H](O)C2CCN(CCc3ccc(F)cc3)CC2)c1OC [M100907, (R)-(+)-α-(2,3-dimethoxyphenyl)-1-[2-(4-fluorophenyl)ethyl]-4-piperidinemethanol]
Affinity for 5-HT2A (5-HT2A [3]): subnanomolar
Fold lower affinity for 5-HT2C and α1 receptors than for 5-HT2A (5-HT2A [3]): at least 100 fold
Selectivity for 5-HT2A vs. 5-HT2C receptors (5-HT2A [1]): 165 fold
Effect of pretreatment on the T50 increase produced by DOI (C57BL/6J mice; M100907 0.03 mg/kg SC pretreatment, DOI 3 mg/kg IP): failed to completely block the T50 increase produced by DOI
Effect of pretreatment on the response to DOI (%B responding) (C57BL/6J mice; M100907 0.03 mg/kg SC pretreatment, DOI 3 mg/kg IP, 6.9 and 10.5 s stimuli): blocked the effect of DOI on %B responding
Difference limen (C57BL/6J mice; [12]): 1.31 ± 0.25 s
Slope (ε) (C57BL/6J mice; [12]): 0.997±0.114
T50 (C57BL/6J mice; [12]): 6.42 ± 0.23 s
Trials completed (C57BL/6J mice; [12]): 163.6±6.5
Weber fraction (C57BL/6J mice; M100907 0.03 mg/kg SC, 10 min before session, mean±SEM): 0.214±0.051
Difference limen (C57BL/6J mice; [13]): 1.48 ± 0.15 s
Slope (ε) (C57BL/6J mice; [13]): 0.791±0.070
T50 (C57BL/6J mice; [13]): 6.80 ± 0.37 s
Trials completed (C57BL/6J mice; [13]): 155.4±7.4
Weber fraction (C57BL/6J mice; M100907 0.1 mg/kg SC, 10 min before session, mean±SEM): 0.220±0.021
Difference limen (C57BL/6J mice; [14]): 1.60 ± 0.20 s
Slope (ε) (C57BL/6J mice; [14]): 0.857±0.184
T50 (C57BL/6J mice; M100907 0.3 mg/kg SC, 10 min before session, 0.3 mg/kg): 7.71 ± 0.45 s
Weber fraction (C57BL/6J mice; M100907 0.3 mg/kg SC, 10 min before session, mean±SEM): 0.206±0.021
